From US11364248B2 (AMGEN INC., priority 2017, dated 2022)
pIC50: −log10 of the molar value.

Legend:
Mcl-1/Bim interaction = Mcl-1/Bim interaction (Homo sapiens (Human), UniProt Q07820); assay: Cell Free Mcl-1: Bim Affinity Assay (Mcl-1 HTRF); assay type: binding; conditions: TR-FRET, recombinant human Mcl-1(171-327), biotin-Bim(51-76); read-out: Mel-1 HTRF IC50
In short: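 TR-FRET competition assay: 0.1 nM His-tagged human Mcl-1(171-327) and 0.05 nM biotin-Bim(51-76) were pre-incubated 60 min with compound in 20 mM Hepes pH 7.5, 150 mM NaCl, Brij35, 1 mM DTT, then with Eu-anti-His/streptavidin-Xlent overnight. The 665/620 nm ratio was fitted by four-parameter model to IC50 (duplicates).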

OPM-2 = assay: Cell Viability Assay (OPM-2 10 FBS); assay type: cell-based, human; conditions: OPM-2 cells, 16 h, CellTiter-Glo, read-out: OPM-2 10% FBS IC50 IP
In short: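 OPM-2 myeloma cells seeded at 3000 cells/well in RPMI 1640 with 10% FBS and exposed to serially diluted compounds for 16 h at 37° C., 5% CO2.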

Sequence of Mcl-1/Bim interaction (Q07820 171-327): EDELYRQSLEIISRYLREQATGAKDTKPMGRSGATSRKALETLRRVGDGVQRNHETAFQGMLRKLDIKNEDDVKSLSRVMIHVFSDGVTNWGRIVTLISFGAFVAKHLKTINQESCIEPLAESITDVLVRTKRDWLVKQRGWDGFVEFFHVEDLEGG

Compound | pIC50 (Mcl-1/Bim interaction) | pIC50 (OPM-2)
C[C@@H]1[C@@H](C)CCC[C@H]([C@H]2OC[C@@H](N3CC4(COC4)C3)CO2)[C@@H]2CC[C@H]2CN2C[C@@]3(CCCc4cc(Cl)ccc43)COc3ccc(cc32)C(=O)NS1(=O)=O (relative stereo) [Example 59] | 9.50 | 7.05
C[C@@H]1[C@@H](C)CCC[C@H]([C@H]2O[C@H]3CNC[C@H]3O2)[C@@H]2CC[C@H]2CN2C[C@@]3(CCCc4cc(Cl)ccc43)COc3ccc(cc32)C(=O)NS1(=O)=O (stereo in doubt) [Example 9, (1S,3′R,6′R,7′R,11′S,12′R)-6-chloro-11′,12′-dimethyl-7′-((2r,3aR,6aS)-tetrahydro-3aH-[1,3]dioxolo[4,5-c]pyrrol-2-yl)-3,4-dihydro-2H,15′H-spiro[naphthalene-1,22′-[20]oxa[13]thia[1,14]diazatetracyclo [14.7.2.0~3,6~.0~19,24~]pentacosa[16,18,24]trien]-15′-one 13′,13′-dioxide] | 9.31 | 6.42
